Results reported in US7563862B2, “Neural regeneration peptides and methods for their use in treatment of brain damage” (Neuren Pharmaceuticals Limited, priority 2001, dated 2009).
Where “and” joins values, the source holds several entries; their conditions need not be identical. Equal entries are not always repeated. Ends that are not written are not given here.

Experiments:
[1] = test system: thalamic parvalbumin-ir neurons; test: BrdU/parvalbumin proliferation within thalamocortical OTCs; assay type: cell-based, rat; conditions: 3 nM
Protocol: Thalamocortical OTCs from rats, as described above in Examples 3 and 4 were incubated at the start of cultivation with 2 μM of BrdU that was removed after 24 hours of cultivation time. OTCs were fixed in 4% paraformaldehyde in 0.1 M phosphate buffer (pH 7.4). Blocking was done in 0.4% Triton and 10% normal goat serum in PBS for 30 minutes. Subsequently the cultures were treated for 30 minutes in 2N HCl at 37° C. and neutralized by 0.1 M Na2B4O7 for 2×5 minutes. Internal peroxidase activity was prevented by 5 minute treatment of the OTCs in 1% H2O2 (only in case of the PAP reaction). Primary antibody (mouse anti-BrdU 1/50-Sigma) reaction was done overnight in 0.4% Triton, 2% BSA in PBS.
Biotinylated goat anti-mouse IgG was applied (1/200 for 2 h) with the subsequent application of the avidin biotin horseradish peroxidase system and the final DAB-detection (0.05%); 0.009% H2O2 enhanced by 0.025% cobalt chloride and 0.02% nickel ammonium sulphate. BrdU-positive nuclei become black stained. […] For double fluorescence detection, mouse anti-BrdU IgG and rabbit anti-parvalbumin IgG (or rabbit anti-calretinin 1/1000) were given simultaneously after the neutralisation step and anti-parvalbumin antibody binding was detected by the biotin-streptavidin/Cy2 detection system while the occurrence of BrdU was monitored by an anti-mouse/Cy3 IgG. […]

cerebellar microexplants = test: cerebellar microexplant neuronal migration assay; assay type: cell-based, rat
Text: Another assay of this invention includes embodiments comprising cerebellar microexplants. Laminated cerebellar cortices of the two hemispheres were explanted from a P-4 Long Evans rat, cut into small pieces in GBSS with 0.65% D(+)glucose solution, and triturated by a 0.4 mm gauge needle and subsequently pressed through a 125 μm pore size sieve. The obtained microexplants were centrifuged (200×g) 2 times for a medium exchange into serum-free BSA-supplemented START V-medium (Biochrom). Finally, the microexplants were reconstituted in 500 μl STARTV-medium. For culturing, 38 μl of the cell suspension and 2 μl of migration-inducing factor (NRP-1) in 0.01 M sodium phosphate (pH 7.3) or phosphate alone (control) was incubated for 3 hours on a poly-D-lysine-coated cover slip in a 35 mm Petri dish under an atmosphere comprising 5% CO2 in air and 100% humidity at 34° C. Subsequently, 1 ml of STARTV-medium was added, and the cultures were evaluated after 2-3 days of culture (for example, see FIG. 2).
For immunohistochemistry and neuronal migration experiments, cerebellar microexplants were fixed after 2-3 days in culture after the following regime: microexplants were fixed by 2-minute, serial treatment with 0.4%; 1.2%; 3% paraformaldehyde/0.25% glutaraldehyde, respectively, followed by a 5 min incubation in 4% paraformaldehyde/0.25% glutaraldehyde in 0.1 M sodium phosphate (pH 7.4). MAP-2 was detected using the biotin-streptavidin/Cy3 detection system as described under the immunohistochemistry section of the thalamocortical OTCs.
Microexplants having a diameter between 100-120 μm were chosen for statistical analysis. For quantitative analysis of neuronal migration, an optical device having 10 consecutive rings of 100 μm diameter was applied over the microexplants. All neurons that had migrated after 48 h of culture were counted. Neurons located between circles 1 to 10 (0.1-1 mm) around the margin of the respective microexplant (see FIG. 2) were counted, and each circle was expressed as a percentage of total migrating cells. The unpaired Student's t-test was used for significance analysis. Results were given as mean values±standard deviation.

[2] = test system: human olfactory ensheating glial (OEG) cells; test: proliferation of olfactory ensheating glial (OEG) cells; assay type: cell-based; conditions: over 72 hours
Protocol: To determine whether NRPs might be useful for remyelinating neural tissues, we carried out studies using human olfactory ensheating glial (OEG) cells. OEG cells are being evaluated as a source population of cells for repopulating damaged neural tissue, such as that of the spinal cord. OEG cells were obtained from scrapings of human nasal mucosa using methods that are known in the art. Cells were grown in medium under control conditions and in the presence of NRP-7 SW (SEQ ID NO:24).

Substance | parvalbumin-ir thalamic neurons co-localised with BrdU ([1]; 5 days in vitro) | enhanced proliferation of parvalbumin expressing neurons compared to controls ([1]; vs defined medium alone) | concentration sufficient to induce significantly enhanced migration of neurons (cerebellar microexplants) | migrating cerebellar cells distributed between 400-500 μm from microexplant margin (cerebellar microexplants; 3 nM, 2 days of culture) | migrating cerebellar cells distributed between 500-600 μm from microexplant margin (cerebellar microexplants; 3 nM, 2 days of culture) | distance from the cerebellar margin where most of the cells were distributed (cerebellar microexplants; two days after administration) | distance from the margin of a significant population of cells (cerebellar microexplants; two days after administration) | rate of growth of OEG cells [2]
NRP-1: rat 16 amino acid neural regeneration peptide purified from hippocampal OTC supernatant, Tyr Asp Pro Glu ... Cys His-NH2 (YDPEAASAPGSGNPCH-NH2) | 6.8±1.3% and 6.8% | up to 150% | 3 nM | 7.3±2.8% | 13.2±13.9% | 200-300 μm | 500-600 μm | 
SEPEARRAPGRKGGVVCASLAADW-NH2 [NRP-7 segment SW, 24-mer form of mouse NRP-7] |  |  |  |  |  |  |  | about 50%
